“And” between values parts separate entries of the source, which are not always exact repeats. Identical values can stand only once.
Tests used:
Daphnia magna = conditions: chronic/long-term; duration: 21 days; reproduction
Rattus norvegicus = conditions: for LD50: acute, oral
Tagia sp. = conditions: acute; duration: 14 days; mortality
Coturnix coturnix = conditions: acute, oral, mortality
Apis mellifera = conditions: acute; duration: 48 hours; oral; unspecified; mortality
Colinus virginianus = conditions: mortality
Canidae = conditions: oral, Dog Other, clinical chemistry
Anas platyrhynchos = conditions: short-term; oral; feed; mortality
Mus musculus = conditions: acute, oral, mortality
Typhlodromus pyri = test: LR50; higher = less toxic; conditions: not reported; mortality
Aphidius rhopalosiphi = test: LR50; higher = less toxic; conditions: not reported; mortality

Cc1nnc(-c2ccccc2)c(=O)n1N [Metamitron]
LC50 (Oncorhynchus mykiss; acute, duration: 96 hours, mortality): > 190 µg/mL | NOEC (Oncorhynchus mykiss; chronic/long-term, duration: 21 days, growth): 7 mg/L | NOEC (Daphnia magna): 10 mg/L | LD50 (Rattus norvegicus; F, mortality): 1480 mg/kg-day | LD50 (Rattus norvegicus; M, mortality): 1180 mg/kg-day | LD50 (Rattus norvegicus; mortality): < 2000 mg/kg-day and 4320 mg/kg-day | NOAEL (Rattus norvegicus; chronic, F, mortality): 53.8 mg/kg-day | NOAEL (Rattus norvegicus; chronic, M, mortality): 36.4 mg/kg-day | NOAEL (Rattus norvegicus; reproduction developmental, body weight): 10 mg/kg-day | LC50 (Tagia sp.): 914 mg/kg | LD50 (Coturnix coturnix; F): 1300 mg/kg-day | LD50 (Coturnix coturnix; M): 1360 mg/kg-day | LD50 (Apis mellifera): > 97.2 µg/piece | LD50 (Colinus virginianus; acute, oral, diet): > 904 mg/kg-day | NOAEL (Colinus virginianus; reproduction developmental): 81.5 mg/kg-day | NOAEL (Canidae; chronic, duration: 2 years, diet): 3 mg/kg-day | NOAEL (Canidae; subchronic, duration: 90 days): 3.6 mg/kg-day | LD50 (Anas platyrhynchos): > 1590 mg/kg-day | LD50 (Mus musculus; M): 691 mg/kg-day | LD50 (Mus musculus): 644 mg/kg-day | LR50 (Typhlodromus pyri): 14400 g/ha | LR50 (Aphidius rhopalosiphi): 14400 g/ha

From EPA's ToxValDB 9.5 (doi:10.2903/j.efsa.2008.185r)
